# Values quoted from earlier work, collected in patent US10016375B2, “Materials and methods for controlling infections” (priority 2013, dated 2018).
# Key:
# [1] = 4% chlorhexidine gluconate applied to the eyes
# [2] = three consecutive cataract operations
smiles,measurement,setting,value
CC(=O)O.CC(=O)O.NC(=N\CCCCCC/N=C(N)/N=C(\N)Nc1ccc(Cl)cc1)/N=C(\N)Nc1ccc(Cl)cc1 [Chlorhexidine diacetate],Acute toxicity when applied to the eye,,highly acutely toxic
[H]/N=C(\N/C(=N/[H])NCCCCCCNC(=N)NC(=N)Nc1ccc(Cl)cc1)Nc1ccc(Cl)cc1 [Chlorhexidine gluconate],"Corneal damage (bullous keratopathy, epithelial defects, corneal opacification) when applied to the eyes",[1],may produce corneal damage
[H]/N=C(\N/C(=N/[H])NCCCCCCNC(=N)NC(=N)Nc1ccc(Cl)cc1)Nc1ccc(Cl)cc1 [chlorhexidine],Effects in the retina or optic nerve after intraocular irrigation,[2],No effects were observed
same,Corneal endothelium damage after intraocular irrigation,[2]; two of the three patients,corneal endothelium damage was so severe that penetrating keratoplasty had to be performed
